# In patent US10065990B2, “Cyclic peptide compound, and preparation method, pharmaceutical composition and use thereof” (HANGZHOU GUANYU BIO-MEDICAL CO., LTD, priority 2013, dated 2018):
# Where two headings read alike, the source gives them in different places.
# What was measured:
# [1] = test system: Hela (human cervical cancer cells); test: MTT cancer cell growth inhibition; assay type: cell-based; conditions: Homo sapiens, HeLa, 72 h, MTT, 72 hours incubation, read-out: GI50 Hela
# Excerpt: (§1) MTT assay principle is yellow MTT can penetrate membrane into the cell, succinic dehydrogenase of the mitochondria in living cells can make exogenous MTT reduction of insoluble in water of blue-violet acicular formazan for crystallization and deposition in the cell, crystallization can be dissolved dimethyl sulfoxide (DMSO) solution, detected its absorbance at 490 nm/570 nm wavelength by enzyme-linked immunosorbent assay, which can reflect the number of cells.
# (§2) Using DMEM+10% FBS culture medium or using 1640+10% FBS culture, respectively.
# (§3) a) Cells were seeded in 96-well plates with the inoculation of 1500/well, 190 μl/hole, 37° C., 5% of CO2 incubator overnight;
# (§4) b) The next day each well was added 10 μl of different drugs. The final concentration of drug was 10^−5˜10^−10M, three parallel holes; 37° C., 5% CO2 culture incubator for 72 hours incubation;
# (§5) c) Per well was added 20 μl 5 mg/ml of MTT, 37° C., 5% CO2 culture incubator for 4 hours incubation;
# (§6) d) The supernatant was discarded. Each well was added 100 μl of DMSO and oscillation;
# (§7) e) 570 nm readings. Calculate cell viability. GI50 calculation based on the results.
# [2] = test system: KBM5-T315I (human chronic myelogenous leukemia); test: MTT cancer cell growth inhibition; assay type: cell-based; conditions: Homo sapiens, 72 h, MTT, 72 hours incubation, KBM5-T315I cells; read-out: GI50 KBM5-T315I
# Excerpt: as §1, §2, §3, §4, §5, §6, §7
# [3] = test system: HT1080 (human fibrosarcoma cells); test: MTT cancer cell growth inhibition; assay type: cell-based; conditions: Homo sapiens, HT-1080, 72 h, MTT, 72 hours incubation, read-out: GI50 HT1
# Excerpt: as §1, §2, §3, §4, §5, §6, §7
# [4] = test system: BGC-823 (human gastric cancer cells); test: MTT cancer cell growth inhibition; assay type: cell-based; conditions: Homo sapiens, BGC-823, 72 h, MTT, 72 hours incubation, read-out: GI50 BG
# Excerpt: as §1, §2, §3, §4, §5, §6, §7
# [5] = test system: H1975 (non-small cell lung adenocarcinoma); test: MTT cancer cell growth inhibition; assay type: cell-based; conditions: Homo sapiens, NCI-H1975, 72 h, MTT, 72 hours incubation, H1975 cells; read-out: GI50 H1975
# Excerpt: as §1, §2, §3, §4, §5, §6, §7
# [6] = test system: DU145 (human prostate cancer cells); test: MTT cancer cell growth inhibition; assay type: cell-based; conditions: Homo sapiens, DU-145, 72 h, MTT, 72 hours incubation, read-out: GI50 Du1
# Excerpt: as §1, §2, §3, §4, §5, §6, §7
# [7] = test system: MCF-7 (human breast cancer cells); test: MTT cancer cell growth inhibition; assay type: cell-based; conditions: Homo sapiens, MCF7, 72 h, 72 hours incubation, read-out: GI50 MCF
# Excerpt: as §1, §2, §3, §4, §5, §6, §7
# [8] = test system: KBM-5 (human chronic myelogenous leukemia); test: MTT cancer cell growth inhibition; assay type: cell-based; conditions: Homo sapiens, KBM5, 72 h, MTT, 72 hours incubation, KBM-5 cells; read-out: GI50 KBM-5
# Excerpt: as §1, §2, §3, §4, §5, §6, §7
# [9] = test system: U937 (human leukemia cells); test: MTT cancer cell growth inhibition; assay type: cell-based; conditions: Homo sapiens, U-937, 72 h, MTT, 72 hours incubation, read-out: GI50 U93
# Excerpt: as §1, §2, §3, §4, §5, §6, §7
# [10] = test system: MDA-MB-231 (breast cancer cells); test: MTT cancer cell growth inhibition; assay type: cell-based; conditions: Homo sapiens, MDA-MB-231, 72 h, read-out: GI50 MDA-MB-231, MTT, 72 hours incubation, MDA-MB-231 cells
# Excerpt: as §1, §2, §3, §4, §5, §6, §7
# [11] = test system: K562 (human leukemia cells); test: MTT cancer cell growth inhibition; assay type: cell-based; conditions: Homo sapiens, K562, 72 h, MTT, 72 hours incubation, K562 cells; read-out: GI50 K562
# Excerpt: as §1, §2, §3, §4, §5, §6, §7
# [12] = test system: HCC827 (human non-small cell lung cancer cells); test: MTT cancer cell growth inhibition; assay type: cell-based; conditions: Homo sapiens, HCC827, 72 h, MTT, 72 hours incubation, HCC827 cells; read-out: GI50 HCC827
# Excerpt: as §1, §2, §3, §4, §5, §6, §7
# [13] = test system: Huh-7 (human hepatoma cells); test: MTT cancer cell growth inhibition; assay type: cell-based; conditions: Homo sapiens, Huh-7, 72 h, MTT, 72 hours incubation, Huh-7 cells; read-out: GI50 Huh-7
# Excerpt: as §1, §2, §3, §4, §5, §6, §7
# [14] = test system: Bel-7402 (human hepatoma cells); test: MTT cancer cell growth inhibition; assay type: cell-based; conditions: Homo sapiens, Bel-7402, 72 h, MTT, 72 hours incubation, Bel-7402 cells; read-out: GI50 Bel-7402
# Excerpt: as §1, §2, §3, §4, §5, §6, §7
# [15] = test system: PANC-1 (Pac-1, human pancreatic cancer cells); test: MTT cancer cell growth inhibition; assay type: cell-based; conditions: Homo sapiens, PANC-1, 72 h, MTT, 72 hours incubation, read-out: GI50 PAN
# Excerpt: as §1, §2, §3, §4, §5, §6, §7
# [16] = test system: SGC-7901 (human gastric cancer cells); test: MTT cancer cell growth inhibition; assay type: cell-based; conditions: Homo sapiens, SGC-7901, 72 h, MTT, 72 hours incubation, SGC-7901 cells; read-out: GI50 SGC-7901
# Excerpt: as §1, §2, §3, §4, §5, §6, §7
# [17] = test system: A549 (human lung cancer cells); test: MTT cancer cell growth inhibition; assay type: cell-based; conditions: Homo sapiens, A549, 72 h, MTT, 72 hours incubation, read-out: GI50 A54
# Excerpt: as §1, §2, §3, §4, §5, §6, §7
# [18] = test system: N-87 (human gastric cancer cells); test: MTT cancer cell growth inhibition; assay type: cell-based; conditions: Homo sapiens, 72 h, MTT, 72 hours incubation, N-87 cells; read-out: GI50 N-87
# Excerpt: as §1, §2, §3, §4, §5, §6, §7
# [19] = test system: MOLT-4 (human acute lymphoblastic leukemia cells); test: MTT cancer cell growth inhibition; assay type: cell-based; conditions: Homo sapiens, MOLT-4, 72 h, MTT, 72 hours incubation, read-out: GI50 Mol
# Excerpt: as §1, §2, §3, §4, §5, §6, §7
# [20] = test system: lncap (prostate cancer cells); test: MTT cancer cell growth inhibition; assay type: cell-based; conditions: Homo sapiens, LNCaP, 72 h, MTT, 72 hours incubation, read-out: GI50 lnca
# Excerpt: as §1, §2, §3, §4, §5, §6, §7
# HDAC7 = biological target: T1, HDAC7 (Homo sapiens, UniProt Q8WUI4); test: HDAC biochemical activity measurement (fluorescent substrate deacetylation);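 also: fluorogenic deacetylation assay using acetyl-lysine substrate at 20 µM, enzyme and compound incubated 30 min at 37 °C, then developer added, fluorescence read at 360/460 nm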; conditions: HDAC7; 37° C. 30 minutes
# T1 sequence (Q8WUI4 1-952): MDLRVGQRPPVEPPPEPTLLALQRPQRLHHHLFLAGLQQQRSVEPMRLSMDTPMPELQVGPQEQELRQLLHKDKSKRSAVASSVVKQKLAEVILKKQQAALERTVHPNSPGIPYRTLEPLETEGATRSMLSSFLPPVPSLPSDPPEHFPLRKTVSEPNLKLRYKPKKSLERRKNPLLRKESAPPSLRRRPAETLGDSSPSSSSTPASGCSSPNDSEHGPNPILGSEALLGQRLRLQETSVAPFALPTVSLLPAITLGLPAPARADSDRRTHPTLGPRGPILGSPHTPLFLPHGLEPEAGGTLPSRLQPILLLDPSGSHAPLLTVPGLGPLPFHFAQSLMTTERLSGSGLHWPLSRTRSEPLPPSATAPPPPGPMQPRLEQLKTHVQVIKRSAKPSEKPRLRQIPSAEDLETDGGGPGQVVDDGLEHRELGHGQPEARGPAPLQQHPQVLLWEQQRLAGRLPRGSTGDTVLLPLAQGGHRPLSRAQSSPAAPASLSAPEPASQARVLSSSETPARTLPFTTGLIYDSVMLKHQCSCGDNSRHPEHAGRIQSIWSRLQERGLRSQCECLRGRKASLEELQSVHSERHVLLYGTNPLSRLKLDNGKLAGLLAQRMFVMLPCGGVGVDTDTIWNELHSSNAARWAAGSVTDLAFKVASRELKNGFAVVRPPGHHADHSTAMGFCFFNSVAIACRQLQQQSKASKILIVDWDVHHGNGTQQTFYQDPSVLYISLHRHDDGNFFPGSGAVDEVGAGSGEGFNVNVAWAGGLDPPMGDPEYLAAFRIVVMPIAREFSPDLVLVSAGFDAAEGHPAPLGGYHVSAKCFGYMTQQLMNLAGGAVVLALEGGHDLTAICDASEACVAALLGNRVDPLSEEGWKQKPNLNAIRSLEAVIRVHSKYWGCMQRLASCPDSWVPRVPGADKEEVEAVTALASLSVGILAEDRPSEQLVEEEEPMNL
Structure (SMILES),GI50 ([1]; Hela cells),GI50 [2],GI50 ([3]; HT1080 cells),GI50 ([4]; BGC-823 cells),GI50 [5],GI50 ([6]; DU145 cells),GI50 ([7]; MCF-7 cells),GI50 [8],GI50 ([9]; U937 cells),GI50 [10],GI50 [11],GI50 [12],GI50 [13],GI50 [14],GI50 ([15]; PANC-1 cells),GI50 [16],GI50 ([17]; A549 cells),GI50 [18],GI50 ([19]; MOLT-4 cells),IC50 HDAC7 (HDAC7),other results
C/C=C1\NC(=O)c2cc(SC)cc(n2)CNC(=O)C[C@@H](/C=C/CCS)OC(=O)[C@H](C)NC1=O [Compound 233],50 nM,46 nM,70 nM,60 nM,51 nM,50 nM,20 nM,97 nM,80 nM,36 nM,24 nM,81 nM,41 nM,81 nM,20 nM,51 nM,20 nM,35 nM,30 nM,no activity,GI50 ([20]; lncap cells): 20 nM
C/C=C1\NC(=O)c2nc(ccc2SC)CNC(=O)C[C@@H](/C=C/CCSC(C)=O)OC(=O)[C@H](CC)NC1=O [Compound 177],100 nM,13 nM,30 nM,40 nM,83 nM,60 nM,50 nM,80 nM,60 nM,49 nM,29 nM,33 nM,35 nM,84 nM,20 nM,39 nM,20 nM,37 nM,60 nM,no activity,GI50 ([20]; lncap cells): 10 nM
C/C=C1\NC(=O)c2cccc(n2)CNC(=O)C[C@@H](/C=C/CCSC(C)=O)OC(=O)[C@@H](C)NC1=O [Example 25],,29 nM,,,42 nM,,,59 nM,,92 nM,27 nM,33 nM,62 nM,93 nM,,29 nM,,38 nM,,no activity,GI50 [1]: 67700 nM; GI50 [3]: 39200 nM; GI50 [4]: 3300 nM; GI50 [6]: 1300 nM; GI50 [7]: 53600 nM; GI50 [9]: 2290 nM; GI50 [15]: 550 nM; GI50 [17]: 15400 nM; GI50 [19]: 300 nM; GI50 [20]: 700 nM
C/C=C1\NC(=O)c2nccc(n2)CNC(=O)C[C@@H](/C=C/CCS)OC(=O)[C@H](C(C)C)NC1=O [Compound 143],,34 nM,,,49 nM,,,36 nM,,25 nM,53 nM,73 nM,75 nM,42 nM,,63 nM,,32 nM,,no activity,GI50 [1]: 60 nM; GI50 [3]: 90 nM; GI50 [4]: 80 nM; GI50 [6]: 70 nM; GI50 [7]: 70 nM; GI50 [9]: 80 nM; GI50 [15]: 80 nM; GI50 [17]: 80 nM; GI50 [19]: 90 nM; GI50 [20]: 60 nM
C/C=C1\NC(=O)c2nc(ccc2F)CNC(=O)C[C@@H](/C=C/CCSC(=O)CCC)OC(=O)[C@H](C(C)C)NC1=O [Example 42],,53 nM,,,35 nM,,,46 nM,,35 nM,57 nM,35 nM,19 nM,55 nM,,32 nM,,84 nM,,no activity,GI50 [1]: 50 nM; GI50 [3]: 40 nM; GI50 [4]: 30 nM; GI50 [6]: 100 nM; GI50 [7]: 100 nM; GI50 [9]: 70 nM; GI50 [15]: 40 nM; GI50 [17]: 40 nM; GI50 [19]: 80 nM; GI50 [20]: 50 nM
C/C=C1\NC(=O)c2ccc(SC)c(n2)CNC(=O)C[C@@H](/C=C/CCSC(C)=O)OC(=O)[C@H](CCCCNC(=O)OCC2c3ccccc3-c3ccccc32)NC1=O [Compound 197],70 nM,21 nM,50 nM,40 nM,45 nM,50 nM,50 nM,86 nM,80 nM,16 nM,49 nM,71 nM,76 nM,52 nM,40 nM,43 nM,60 nM,28 nM,40 nM,no activity,GI50 ([20]; lncap cells): 30 nM
